Experimental data published in ChEMBL document CHEMBL4033769, “Simple Tetrahydroisoquinolines Are Potent and Selective Kappa Opioid Receptor Antagonists” (ACS Med Chem Lett, 2017).
Activity calls are given as the source filed them. The calls are words filed in the database; no cut-off is given here.

Key:
[1] = target: Kappa-type opioid receptor (Homo sapiens) (UniProt P41145); test: Agonist activity at human kappa-opioid receptor expressed in CHO cell membranes assessed as induction of [35S]GTPgammaS binding at 10 uM after 60 mins by scintillation counting method; format: functional
Sequence of Kappa-type opioid receptor (Homo sapiens) (P41145 whole entry): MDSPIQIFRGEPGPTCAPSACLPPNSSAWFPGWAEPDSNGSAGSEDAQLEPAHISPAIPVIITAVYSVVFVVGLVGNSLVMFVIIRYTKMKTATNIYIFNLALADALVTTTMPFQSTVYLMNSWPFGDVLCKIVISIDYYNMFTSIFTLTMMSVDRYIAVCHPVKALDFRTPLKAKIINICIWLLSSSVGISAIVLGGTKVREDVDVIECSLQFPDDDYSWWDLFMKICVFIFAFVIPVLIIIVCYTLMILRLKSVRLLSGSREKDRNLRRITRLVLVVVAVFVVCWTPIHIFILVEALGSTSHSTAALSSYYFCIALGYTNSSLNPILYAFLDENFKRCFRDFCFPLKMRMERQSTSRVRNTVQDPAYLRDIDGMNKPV

[2] = target: Delta-type opioid receptor (Homo sapiens) (UniProt P41143); test: Agonist activity at human delta-opioid receptor expressed in CHO cell membranes assessed as induction of [35S]GTPgammaS binding at 10 uM after 60 mins by scintillation counting method; format: functional
Sequence of Delta-type opioid receptor (Homo sapiens) (P41143 whole entry): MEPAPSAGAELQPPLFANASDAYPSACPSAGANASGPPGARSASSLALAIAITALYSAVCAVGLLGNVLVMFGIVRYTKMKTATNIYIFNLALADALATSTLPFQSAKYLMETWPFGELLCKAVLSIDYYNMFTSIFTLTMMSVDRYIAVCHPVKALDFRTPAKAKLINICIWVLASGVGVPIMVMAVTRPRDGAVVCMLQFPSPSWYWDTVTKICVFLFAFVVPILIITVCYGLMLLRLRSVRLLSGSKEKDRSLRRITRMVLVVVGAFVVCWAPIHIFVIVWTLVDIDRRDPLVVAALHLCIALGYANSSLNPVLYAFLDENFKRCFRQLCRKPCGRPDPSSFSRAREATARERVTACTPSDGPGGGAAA

[3] = target: Mu-type opioid receptor (Homo sapiens) (UniProt P35372); test: Agonist activity at human mu-opioid receptor expressed in CHO cell membranes assessed as induction of [35S]GTPgammaS binding at 10 uM after 60 mins by scintillation counting method; format: functional
Sequence of Mu-type opioid receptor (Homo sapiens) (P35372 whole entry): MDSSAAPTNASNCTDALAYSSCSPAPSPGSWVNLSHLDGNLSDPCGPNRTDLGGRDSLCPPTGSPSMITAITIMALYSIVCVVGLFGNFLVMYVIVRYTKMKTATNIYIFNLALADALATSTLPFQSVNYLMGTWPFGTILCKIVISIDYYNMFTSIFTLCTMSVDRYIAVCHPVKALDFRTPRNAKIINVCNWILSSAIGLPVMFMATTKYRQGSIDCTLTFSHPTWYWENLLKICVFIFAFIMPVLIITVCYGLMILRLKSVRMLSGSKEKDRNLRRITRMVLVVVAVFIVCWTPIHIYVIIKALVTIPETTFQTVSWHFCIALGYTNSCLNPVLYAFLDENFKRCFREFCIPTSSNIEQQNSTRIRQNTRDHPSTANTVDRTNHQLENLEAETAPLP

[4] = target: Delta-type opioid receptor (Homo sapiens) (UniProt P41143)
Description: Antagonist activity at human delta-opioid receptor expressed in CHO cell membranes assessed as inhibition of DPDPE agonist-induced [35S]GTPgammaS binding after 60 mins by scintillation counting method

With `CC(C)[C@@H](CN1CCCCC1)NC(=O)[C@H]1Cc2ccc(O)cc2CN1` the Activity [1] was “inactive”, the Activity [2] was “inactive” and the Activity [3] was “inactive”.
With `CC(C)[C@@H](CC1CCCCC1)NC(=O)[C@H]1Cc2ccc(O)cc2CN1` the Activity [1] was “inactive”, the Activity [2] was “inactive” and the Activity [3] was “inactive”. It also gave a Ke [4] of 640 nM.
